Experimental data reported in patent US12122816B2, “Long acting peptide tyrosine tyrosine (PYY) analogs and methods of use” (Intarcia Therapeutics, Inc., priority 2020, dated 2024).
Read-outs that look alike come from different tables or passages of the source.

Experiments:
human Y1 receptor = biological target: T1, human Y1 receptor (Homo sapiens, UniProt P25929); assay: NPY receptor functional assay (cAMP, HEK-CNG cells, ACTOne membrane potential dye); type: cell-based
T1 sequence (P25929 1-384): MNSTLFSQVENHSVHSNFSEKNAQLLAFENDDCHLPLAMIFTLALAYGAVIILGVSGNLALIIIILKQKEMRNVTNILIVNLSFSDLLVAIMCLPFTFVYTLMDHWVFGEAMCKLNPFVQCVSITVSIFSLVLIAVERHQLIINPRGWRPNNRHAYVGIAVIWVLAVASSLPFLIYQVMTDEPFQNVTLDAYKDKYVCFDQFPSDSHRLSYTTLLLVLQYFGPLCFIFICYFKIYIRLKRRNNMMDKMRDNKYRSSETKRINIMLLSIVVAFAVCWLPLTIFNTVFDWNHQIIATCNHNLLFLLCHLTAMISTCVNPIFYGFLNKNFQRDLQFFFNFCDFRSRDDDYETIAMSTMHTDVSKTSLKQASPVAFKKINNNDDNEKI
Text: The NPY family of G-protein coupled receptors include Y1, Y2, Y4, and Y5 in humans and rats. […] Following agonist binding, the receptor-G protein complex activates a downstream intracellular signaling cascade which leads to inhibition of adenylate cyclase and a reduction in intracellular cAMP levels.
HEK-CNG cells stably expressing the human or rat Y1, Y2, Y4 or Y5 receptors (Codex Biosolutions) were used to characterize the functional potency of peptide agonists using the ActOne™ membrane potential dye kit (Codex Biosolutions). In addition to each NPY receptor, each cell line encodes a proprietary exogenous Cyclic Nucleotide-Gated (CNG) channel (Codex Biosolutions). The channel is activated by elevated intracellular levels of cAMP, resulting in ion flux and cell membrane depolarization which can be detected with a calcium sensitive dye or fluorescent membrane potential (MP) dye. Cells were carried in growth media containing 90% DMEM, 10% FBS, 250 mcg/mL G418 and 1 mcg/mL puromycin for no more than 15 passages.
Prior to testing, cells were counted and dispensed at 14,000 cells per well (Y1, Y4 and Y5) or 28,000 cells per well (Y2) into black 384 well Poly-D-Lysine plates at 20 mcL per well. Covered plates were then incubated at room temperature for 30 minutes followed by an overnight incubation at 37° C. in 5% C02. The following day, media was removed and wells were washed once with 40 mcL Dulbecco's phosphate buffered saline. […] Ten microliters of experimental peptide or peptide standard was added in triplicate to wells and incubated for 50 minutes at room temperature in the dark. Following this incubation step, plates were read again as before (final read).
NPY receptor activation, leading to a reduction in intracellular cAMP levels, is detected as a decrease in isoproteranol induced fluorescent signal. Peptide standard and experimental values were initially transformed in excel using the formula: final read/initial read. […] Normalized data was analyzed from triplicate tests and used to estimate the EC50 for each test peptide on each receptor. Data was fit in GraphPad Prism software (v8.2.1) using a 3-parameter logistic curve model: Y=Bottom+(Top−Bottom)/(1+10^((LogEC50−X))). EC50 values were converted to pEC50 values using the formula: pEC50=−Log(EC50).

[1] = In vitro metabolic stability in kidney brush border membranes (kBBM); type: in vitro ADME; conditions: 1 mcM peptide, 37° C.
[2] = Stability in water or saline (1 mg/ml) at 37° C., purity by LC/MS and HPLC; type: physicochemical; conditions: TFA salt form

With `CC(C)C[C@H](NC(=O)[C@H](Cc1ccc(O)cc1)NC(=O)[C@H](Cc1c[nH]cn1)NC(=O)[C@H](CCCNC(=N)N)NC(=O)[C@H](CC(C)C)NC(=O)[C@H](CC(=O)O)NC(=O)[C@@H](CCCCNC(=O)CC[C@H](NC(=O)CC[C@H](NC(=O)CCCCCCCCCCCCCCCCCCC(=O)O)C(=O)O)C(=O)O)NC(=O)[C@H](Cc1ccc(O)cc1)NC(=O)[C@H](Cc1ccc(O)cc1)NC(=O)[C@H](CCCNC(=N)N)NC(=O)[C@H](CC(N)=O)NC(=O)[C@H](Cc1c[nH]c2ccccc12)NC(=O)[C@H](CCC(=O)O)NC(=O)[C@H](CCC(=O)O)NC(=O)[C@@H]1CCCN1C(=O)[C@H](CO)NC(=O)[C@H](C)NC(=O)[C@H](CC(=O)O)NC(=O)[C@H](CCCCN)NC(=O)CNC(=O)[C@@H]1CCCN1C(=O)[C@H](C)NC(=O)[C@H](CCC(=O)O)NC(=O)[C@@H]1CCCN1C(=O)[C@H](CCCCN)NC(=O)[C@@H]1CCCN1)C(=O)N[C@@H](CC(N)=O)C(=O)N[C@@H](Cc1c[nH]c2ccccc12)C(=O)N[C@@H](CC(C)C)C(=O)N[C@H](C(=O)N[C@@H](CCCNC(=N)N)C(=O)N[C@@H](CCC(N)=O)C(=O)N[C@@H](CCCNC(=N)N)C(=O)N[C@@H](Cc1ccccc1)C(N)=O)[C@@H](C)O` [Compound A14] the EC50 (human Y1 receptor) was 3.16 nM, the half-life at 1 mcM ([1]; pH 7.4, human kBBM 50 mcg protein/mL, read-out: hkBBM t½ (converted)) was > 12 h and the half-life at 1 mcM ([1]; pH 7.4, rat kBBM 50 mcg protein/mL, read-out: rkBBM t½) was > 12 h. For the same molecule, the “Stability (37° C./RT, T0: Mar. 25, 2020)” value [2] was 94.2.
